Assay results taken from patent publication US7531195B2, “Schisandrin B preparation” (priority 2005, dated 2009).
Marks after values point to notes of the source that are not given here.

What was measured:
Hsp25 = Hsp25 expression in H9c2 cells (Western blot); format: cell-based, rat; details: 6.25 μM
Protocol: (§1) H9c2 cells, a permanent cell line derived from cardiac myoblasts of rat embryo, have early been characterized as a suitable model of myocardial cells [Hescheler et al. 1991]. H9c2 cells were cultured as monolayers in Dulbecco's modified Eagle's medium (GIBCO BRL) supplemented with 10% (v/v) fetal bovine serum. The medium contained glucose (4.5 g/L) and glutamine (4.5 mM), supplemented with NaHCO3 (17 mM), penicillin (100 IU/ml), and streptomycin (100 μg/ml). Cells were grown under an atmosphere of 5% CO2 in air at 37° C. The medium was replaced by fresh medium every 2 or 3 days. A stock of cells was grown in a 75 cm culture flask and split before confluence at a subcultivation ratio of 1:10. Cells used for experiments were seeded at a density of 3.75×10^4 cells/well on a 12-well culture plate, and the cells were grown for 24 h to about 80% confluence prior to drug treatment.
(§2) Cultured H9c2 cells were treated with (−) Schisandrin B, (+) Schisandrin B or (±) Schisandrin B (dissolved in DMSO) at 6.25 μM (0.2% DMSO final concentration) for increasing periods of time. Control cells were given the vehicle (i.e. DMSO) only.
(§3) Immediately following the drug treatment, the cells were washed twice with 0.5 ml cold PBS and treated with 100 μl lysis buffer containing 20 mM Tris HCl, 3 mM EGTA, 1% Triton X-100, 10% glycerol and 2 mM dithiothreitol, pH 7.5, with freshly added protease inhibitors (1 mM phenylmethylsulfonyl fluoride, 0.1 mM benzamide, 5 μg/ml leupeptin, 5 μg aproptinin and 5 μg/ml pepstain A). The mixture was incubated at 4° C. for 15 min with constant shaking. Then the cells were scraped off from the plate, and the extract was transferred to a microcentrifuge tube for centrifugation at 2,400 g for 3 min at 4° C. The resultant supernatant was used for Hsp analysis. Hsp25 and Hsp70 levels was estimated by Western blot analysis using specific antibodies (anti-Hsp25, catalog #SPA-801; anti-Hsp70, catalog #SPA-812) from StressGen (Vancouver, BC, Canada) following SDS-PAGE analysis cell lysates, using a separating gel of 10% acrylamide as described in Ip et. al. [2001]. Hsp25/27 and Hsp70 (human recombinant proteins from StressGen) and actin (bovine muscle from Sigma) were used as markers for reference. […] All immuno-blots were analyzed by densitometry, and the amounts (arbitrary units) of Hsp were normalized with reference to actin levels (arbitrary units) in the sample.

Hsp70 = Hsp70 expression in H9c2 cells (Western blot); format: cell-based, rat; details: 6.25 μM
Protocol: as §1, §2, §3

Myocardial Mitochondria = assay: Myocardial mitochondrial glutathione antioxidant status, young male and female rats; format: in vivo, rat; details: 35 days
Protocol: Male/Female adult Sprague-Dawley rats (˜10 weeks old) were maintained under a 12-h dark/light cycle at about 22° C. and allowed food and water ad libitum. Animals were randomly divided into groups, with at least 5 animals in each. In the pretreatment groups, rats were treated intragastrically with (−) Schisandrin B at a daily dose of 1 or 10 mg/kg for 35 days. Control animals received oil only (10 ml/kg). Twenty-four hours following the last dosing, hearts were isolated from control or drug-pretreated rats and then subjected to Langendorff perfusion as described below.
Myocardial tissue samples were rinsed with ice-cold isotonic buffer (50 mM Tris, 0.32 M sucrose, 1 mM Na2EDTA, 0.2 mg/ml soybean trypsin inhibitor, 0.2 mg/ml bacitracine, 0.16 mg/ml benzamidine). Tissue homogenates were prepared by homogenizing 0.8 g of myocardial tissue in 8 ml ice-cold isotonic buffer and the homogenates were used for the preparation of mitochondrial fractions by differential centrifugation, as described in Chiu and Ko (2004). The mitochondrial pellets were resuspended in 1.5 ml of isotonic buffer containing 150 μl of 2 mg/ml soybean trypsin inhibitor and constituted the mitochondrial fractions.
Aliquots (500 μl) of mitochondrial fractions were taken for measuring mitochondrial GSH level by HPLC methods, using GSH as standards, respectively, as described (Chiu et al 2002). Aliquots (400 μl) of mitochondrial fractions were mixed with 933 μl Triton X-100 solution (0.3%, v/v, in isotonic buffer) and sonicated for 2 min on ice. The mixtures were then subjected to measurements of mitochondrial glutathione reductase (GRD), Se-glutathione peroxidase (GPX) and glutathione S-transferases (GST) activities by spectrophotometric methods, as described in Chiu et al. (2002).

[1] = 0 h post-dosing (unpretreated control)
[2] = female rats, 1 mg/kg daily oral
[3] = female rats, 10 mg/kg daily oral

SMILES: COc1cc2c(c(OC)c1OC)-c1c(cc3c(c1OC)OCO3)CC(C)C(C)C2 (single isomer, unassigned; (-)) [(−) Sch B, (−) Schisandrin B]
- Hsp 25 Level (Hsp25; [1]): 1722 ± 99 AU
- Hsp 25 Level (Hsp25; 8 h post-dosing): 1386 ± 50 AU
- Hsp 25 Level (Hsp25; 16 h post-dosing): 1432 ± 83 AU
- Hsp 25 Level (Hsp25; 24 h post-dosing): 1956 ± 113 AU
- Hsp 25 Level, percent increase vs unpretreated control (0 h) (Hsp25; 24 h post-dosing): (14%)
- Hsp 25 Level (Hsp25; 48 h post-dosing): 1878 ± 108 AU
- time of maximum stimulation of Hsp25 level (Hsp25; post-dosing): 24 h
- Hsp 70 Level (Hsp70; [1]): 465 ± 14.3 AU
- Hsp 70 Level (Hsp70; 8 h post-dosing): 486 ± 16.7 AU
- Hsp 70 Level (Hsp70; 16 h post-dosing): 548 ± 6.67 AU
- Hsp 70 Level (Hsp70; 24 h post-dosing): 1058 ± 61 AU
- Hsp 70 Level, percent increase vs unpretreated control (0 h) (Hsp70; 24 h post-dosing): (128%)
- Hsp 70 Level (Hsp70; 48 h post-dosing): 556 ± 32.1 AU
- time of maximum stimulation of Hsp70 level (Hsp70; post-dosing): 24 h
- GPX (Myocardial Mitochondria; [2]): 73.2 ± 4.98^b mU/mg Protein
- GPX, percent increase vs untreated control (Myocardial Mitochondria; [2]): (43%)
- GRD (Myocardial Mitochondria; [2]): 6.30 ± 0.37^b mU/mg protein
- GRD, percent increase vs untreated control (Myocardial Mitochondria; [2]): (34%)
- GSH (Myocardial Mitochondria; [2]): 17.3 ± 1.11^b nmol/mg protein
- GSH, percent increase vs untreated control (Myocardial Mitochondria; [2]): (60%)
- GST (Myocardial Mitochondria; [2]): 14.1 ± 0.58^b mU/mg protein
- GST, percent increase vs untreated control (Myocardial Mitochondria; [2]): (37%)
- GPX (Myocardial Mitochondria; [3]): 78.3 ± 2.94^b mU/mg Protein
- GPX, percent increase vs untreated control (Myocardial Mitochondria; [3]): (53%)
- GRD (Myocardial Mitochondria; [3]): 8.02 ± 0.55^b mU/mg protein
- GRD, percent increase vs untreated control (Myocardial Mitochondria; [3]): (71%)
- GSH (Myocardial Mitochondria; [3]): 21.6 ± 0.38^b nmol/mg protein
- GSH, percent increase vs untreated control (Myocardial Mitochondria; [3]): (107%)
- GST (Myocardial Mitochondria; [3]): 16.9 ± 0.90^b mU/mg protein
- GST, percent increase vs untreated control (Myocardial Mitochondria; [3]): (63%)
- GPX (Myocardial Mitochondria; male rats, 1 mg/kg daily oral): 77.3 ± 3.78^a mU/mg Protein
- GPX, percent increase vs untreated control (Myocardial Mitochondria; male rats, 1 mg/kg daily oral): (48%)
- GRD (Myocardial Mitochondria; male rats, 1 mg/kg daily oral): 6.76 ± 0.29 mU/mg protein
- GRD, percent increase vs untreated control (Myocardial Mitochondria; male rats, 1 mg/kg daily oral): (26%)
- GSH (Myocardial Mitochondria; male rats, 1 mg/kg daily oral): 18.1 ± 1.06^a nmol/mg protein
- GSH, percent increase vs untreated control (Myocardial Mitochondria; male rats, 1 mg/kg daily oral): (56%)
- GST (Myocardial Mitochondria; male rats, 1 mg/kg daily oral): 12.8 ± 0.10 mU/mg protein
- GST, percent increase vs untreated control (Myocardial Mitochondria; male rats, 1 mg/kg daily oral): (65%)
- GPX (Myocardial Mitochondria; male rats, 10 mg/kg daily oral): 83.7 ± 2.12^a mU/mg Protein
- GPX, percent increase vs untreated control (Myocardial Mitochondria; male rats, 10 mg/kg daily oral): (60%)
- GRD (Myocardial Mitochondria; male rats, 10 mg/kg daily oral): 7.59 ± 0.13^a mU/mg protein
- GRD, percent increase vs untreated control (Myocardial Mitochondria; male rats, 10 mg/kg daily oral): (42%)
- GSH (Myocardial Mitochondria; male rats, 10 mg/kg daily oral): 23.8 ± 1.10^a nmol/mg protein
- GSH, percent increase vs untreated control (Myocardial Mitochondria; male rats, 10 mg/kg daily oral): (105%)
- GST (Myocardial Mitochondria; male rats, 10 mg/kg daily oral): 14.5 ± 0.36^a mU/mg protein
- GST, percent increase vs untreated control (Myocardial Mitochondria; male rats, 10 mg/kg daily oral): (83%)
